Experimental data published in patent US20110070232A1, “Combination Therapy with an Antitumor Alkaloid” (Pharma Mar, S.A., priority 2008, published 2011).
Read-outs that look alike come from different tables or passages of the source.

Assays:
MRI-H-254 tumors [1] = format: in vivo, mice
Method: (§1) Female athymic nude mice (Harlan Sprague Dawley, Madison, Wis.) were utilized for all experiments. Animals were housed in ventilated rack caging with food and water ad libitum. The mice were acclimated for at least 5 days prior to tumor implantation with tumor fragments.
Bacterial culture was taken on cells used to implant the study.
Treatments were initiated on DPI 20.
5-FU was provided in the form of injection vials which was diluted with 0.9% sterile Saline.
(§2) Tumor size measurements were recorded twice weekly from the treatment initiation until the termination of the study.
(§3) Mean, standard deviation and standard error of the mean were determined for tumor volume for all animal groups at all assessments. Student's t test was performed on tumor volumes at each measurement day, including at the end of the study, to determine whether there were any statistically significant differences between combination treatment groups and single monotherapy treatment groups.

MRI-H-254 tumors [2] = format: in vivo, mice; remark: listed apart in the source
Method: as §1
Treatments were initiated on DPI 16.
as §2, §3

[3] = tested on: HT-29 (colon cancer) cell line; test: IC50 determination, MIT (tetrazolium) assay, 72 h (Example 18); format: cell-based, human; settings: Homo sapiens; HT-29, 72 hours of drug exposure
[4] = tested on: LoVo (colon cancer) cell line; test: as above; format: cell-based, human; settings: Homo sapiens, 72 hours of drug exposure
[5] = tested on: NCI-H23 (lung cancer) cell line; test: as above; format: cell-based, human; settings: Homo sapiens; NCI-H23, 72 hours of drug exposure
Method: NCI-H23 cells were grown in RPMI supplemented with 10% Fetal Bovine Serum (FBS), 1% penicillin/streptomycin and 2 mM L-glutamine.
(§4) Before plating, cell cultures were trypsinized and cell number estimated using an automated flow cytometer.
(§5) Cells were harvested and seeded in 96 well microtiter plates at the appropriate cell density (5,000-10,000 cells) in 150 μL of media and incubated for 24 hours to allow the cells to attach before drug addition.
(§6) After the incubation period (72 hours), 50 μL of MIT solution was added to each microtiter well and incubated for further 8 hours at 37° C. The culture medium was then removed and 50 μl, of DMSO were added to dissolve the MIT crystals. Optical densities were read at 540 nm on spectrophotometer microplate reader.
(§7) IC50 values were calculated from an average of two to four assays for each of the test agents.

[6] = tested on: HCT-116 (colon cancer) cell line; test: as above; format: cell-based, human; settings: Homo sapiens; HCT-116, 72 hours of drug exposure
Method: HCT-116 cells were grown in McCoy's supplemented with 10% Fetal Bovine Serum (FBS), 1% penicillin/streptomycin and 2 mM L-glutamine.
as §4, §5, §6, §7

CaLu-6 tumors = format: in vivo, mice; settings: PM00104 0.9 mg/kg/day IV and/or Gemcitabine 180 mg/kg/day IP
Method: Female athymic nude mice (Harlan Sprague Dawley, Madison, Wis.) were utilized for all experiments. Animals were housed in ventilated rack caging with food and water ad libitum. The mice were acclimated for at least 5 days prior to tumor implantation.
The tumor model used in this study was CaLu-6 cell line which is a human lung cancer cell line obtained from the ATCC (Manassas, Va.). CaLu-6 cells were grown in Eagle's Minimum Essential Medium (MEM), 10% FBS and 2 mM L-glutamine. Cells from in vitro passage 12 were implanted SC into study mice using a 1 ml syringe with a 13G trocar: 5×10^6 cells/mouse in 0.2 ml 50% Matrigel/50% MEM medium of CaLu-6 without serum or antibiotics. Bacterial culture was taken on cells used to implant the study.
When tumors reached an appropriated volume, within the size range of 99±17 mm^3 (mean±SD), mice were randomized into the treatment and control groups based on tumor weight by using LabCat® In Life module V 8.0 SP1 tumor tracking and measurement software. Treatments were initiated on DPI 9.
Tumor size measurements were recorded 2-3 times/week from the treatment initiation until the termination of the study.
as §3

[7] = PM00104 0.90 IV, 5-FU 100 IP mg/kg/day (G2, G3, G5), DPI 20, 27, 34
[8] = day 16, PM00104 0.90, cisplatin 5, irinotecan 18, paclitaxel 25 mg/kg/day
[9] = day 20, PM00104 0.90, cisplatin 5, irinotecan 18, paclitaxel 25 mg/kg/day
[10] = day 23, PM00104 0.90, cisplatin 5, irinotecan 18, paclitaxel 25 mg/kg/day
[11] = day 26, PM00104 0.90, cisplatin 5, irinotecan 18, paclitaxel 25 mg/kg/day
[12] = day 29, PM00104 0.90, cisplatin 5, irinotecan 18, paclitaxel 25 mg/kg/day
[13] = day 33, PM00104 0.90, cisplatin 5, irinotecan 18, paclitaxel 25 mg/kg/day
[14] = day 40, PM00104 0.90, cisplatin 5, irinotecan 18, paclitaxel 25 mg/kg/day
[15] = day 48, PM00104 0.90, cisplatin 5, irinotecan 18, paclitaxel 25 mg/kg/day

SMILES: COc1c(C)cc2c(c1O)[C@@H]1[C@@H]3Cc4c(OC(C)=O)c(C)c5c(c4[C@H](CNC(=O)/C=C/c4cccc(C(F)(F)F)c4)N3[C@@H](O)[C@H](C2)N1C)OCO5 [PM00104]
- % T/C on day 20 (MRI-H-254 tumors [1]; [7]): 98.7%
- % T/C on day 23 (MRI-H-254 tumors [1]; [7]): 95.9%
- % T/C on day 26 (MRI-H-254 tumors [1]; [7]): 83.7%
- % T/C on day 30 (MRI-H-254 tumors [1]; [7]): 75.3%
- % T/C on day 34 (MRI-H-254 tumors [1]; [7]): 53.1%
- % T/C on day 36 (MRI-H-254 tumors [1]; [7]): 46.5%
- % T/C on day 43 (MRI-H-254 tumors [1]; [7]): 26.9%
- % T/C on day 49 (MRI-H-254 tumors [1]; [7]): 36.7%
- % T/C on day 56 (MRI-H-254 tumors [1]; [7]): 50.6%
- % T/C on day 63 (MRI-H-254 tumors [1]; [7]): 81.3%
- % Inhibition (MRI-H-254 tumors [1]; day 20, PM00104 0.9 and 5-FU 50 mg/kg/day): 1.3%
- % Inhibition (MRI-H-254 tumors [1]; day 20, PM00104 0.9 and 5-FU 100 mg/kg/day): 1.3%
- % Inhibition (MRI-H-254 tumors [1]; day 23, PM00104 0.9 and 5-FU 50 mg/kg/day): 4.1%
- % Inhibition (MRI-H-254 tumors [1]; day 23, PM00104 0.9 and 5-FU 100 mg/kg/day): 4.1%
- % Inhibition (MRI-H-254 tumors [1]; day 26, PM00104 0.9 and 5-FU 50 mg/kg/day): 16.3%
- % Inhibition (MRI-H-254 tumors [1]; day 26, PM00104 0.9 and 5-FU 100 mg/kg/day): 16.3%
- % Inhibition (MRI-H-254 tumors [1]; day 30, PM00104 0.9 and 5-FU 50 mg/kg/day): 24.7%
- % Inhibition (MRI-H-254 tumors [1]; day 30, PM00104 0.9 and 5-FU 100 mg/kg/day): 24.7%
- % Inhibition (MRI-H-254 tumors [1]; day 34, PM00104 0.9 and 5-FU 50 mg/kg/day): 46.9%
- % Inhibition (MRI-H-254 tumors [1]; day 34, PM00104 0.9 and 5-FU 100 mg/kg/day): 46.9%
- % Inhibition (MRI-H-254 tumors [1]; day 36, PM00104 0.9 and 5-FU 50 mg/kg/day): 53.5%
- % Inhibition (MRI-H-254 tumors [1]; day 36, PM00104 0.9 and 5-FU 100 mg/kg/day): 53.5%
- % Inhibition (MRI-H-254 tumors [1]; day 43, PM00104 0.9 and 5-FU 50 mg/kg/day): 73.1%
- % Inhibition (MRI-H-254 tumors [1]; day 43, PM00104 0.9 and 5-FU 100 mg/kg/day): 73.1%
- % Inhibition (MRI-H-254 tumors [1]; day 49, PM00104 0.9 and 5-FU 50 mg/kg/day): 63.3%
- % Inhibition (MRI-H-254 tumors [1]; day 49, PM00104 0.9 and 5-FU 100 mg/kg/day): 63.3%
- % Inhibition (MRI-H-254 tumors [1]; day 56, PM00104 0.9 and 5-FU 50 mg/kg/day): 49.4%
- % Inhibition (MRI-H-254 tumors [1]; day 56, PM00104 0.9 and 5-FU 100 mg/kg/day): 49.4%
- % Inhibition (MRI-H-254 tumors [1]; day 63, PM00104 0.9 and 5-FU 50 mg/kg/day): 18.7%
- % Inhibition (MRI-H-254 tumors [1]; day 63, PM00104 0.9 and 5-FU 100 mg/kg/day): 18.7%
- % Inhibition (MRI-H-254 tumors [2]; day 16, PM00104 0.90, cisplatin 3, irinotecan 10, paclitaxel 12.5 mg/kg/day): 2.0%
- % Inhibition (MRI-H-254 tumors [2]; [8]): 2.0%
- % T/C (MRI-H-254 tumors [2]; [8]): 98.0%
- % Inhibition (MRI-H-254 tumors [2]; day 20, PM00104 0.90, cisplatin 3, irinotecan 10, paclitaxel 12.5 mg/kg/day): 6.1%
- % Inhibition (MRI-H-254 tumors [2]; [9]): 6.1%
- % T/C (MRI-H-254 tumors [2]; [9]): 93.9%
- % Inhibition (MRI-H-254 tumors [2]; day 23, PM00104 0.90, cisplatin 3, irinotecan 10, paclitaxel 12.5 mg/kg/day): 43.9%
- % Inhibition (MRI-H-254 tumors [2]; [10]): 43.9%
- % T/C (MRI-H-254 tumors [2]; [10]): 56.1%
- % Inhibition (MRI-H-254 tumors [2]; day 26, PM00104 0.90, cisplatin 3, irinotecan 10, paclitaxel 12.5 mg/kg/day): 59.4%
- % Inhibition (MRI-H-254 tumors [2]; [11]): 59.4%
- % T/C (MRI-H-254 tumors [2]; [11]): 40.6%
- % Inhibition (MRI-H-254 tumors [2]; day 29, PM00104 0.90, cisplatin 3, irinotecan 10, paclitaxel 12.5 mg/kg/day): 61.7%
- % Inhibition (MRI-H-254 tumors [2]; [12]): 61.7%
- % T/C (MRI-H-254 tumors [2]; [12]): 38.3%
- % Inhibition (MRI-H-254 tumors [2]; day 33, PM00104 0.90, cisplatin 3, irinotecan 10, paclitaxel 12.5 mg/kg/day): 72.0%
- % Inhibition (MRI-H-254 tumors [2]; [13]): 72.0%
- % T/C (MRI-H-254 tumors [2]; [13]): 28.0%
- % Inhibition (MRI-H-254 tumors [2]; day 40, PM00104 0.90, cisplatin 3, irinotecan 10, paclitaxel 12.5 mg/kg/day): 81.8%
- % Inhibition (MRI-H-254 tumors [2]; [14]): 81.8%
- % T/C (MRI-H-254 tumors [2]; [14]): 18.2%
- % Inhibition (MRI-H-254 tumors [2]; day 48, PM00104 0.90, cisplatin 3, irinotecan 10, paclitaxel 12.5 mg/kg/day): 84.4%
- % Inhibition (MRI-H-254 tumors [2]; [15]): 84.4%
- % T/C (MRI-H-254 tumors [2]; [15]): 15.6%
- IC50 [3]: 6 nM
- IC50 [4]: 3 nM
- IC50 [5]: 5 nM
- IC50 [6]: 9 nM
- % T/C on day 9 (CaLu-6 tumors): 102.6%
- % T/C on day 12 (CaLu-6 tumors): 77.9%
- % T/C on day 15 (CaLu-6 tumors): 78.8%
- % T/C on day 19 (CaLu-6 tumors): 90.6%
- % T/C on day 22 (CaLu-6 tumors): 87.8%
- % T/C on day 26 (CaLu-6 tumors): 87.6%
- % T/C on day 29 (CaLu-6 tumors): 73.5%
- % T/C on day 34 (CaLu-6 tumors): 75.8%
- % T/C on day 40 (CaLu-6 tumors): 88.3%
